According to US11980598B2, “N-(2-(substituted-naphth-1-yl)ethyl) substituted amide compound, preparation and uses thereof” (BEIJING GREATWAY PHARMACEUTICAL TECHNOLOGY CO., LTD., priority 2017, dated 2024):
Like-named read-outs stand apart in the source and are kept apart here.

How the values were obtained:
[1] = system: chronic stress rat; test: Chronic unpredictable stress model of rat: novelty-suppressed feeding test; type: in vivo; details: stress rats, day 31
Experimental: Animals: SD rats, male, weighing 150-180 g, SPF grade.
Formulation and administration mode of drugs: All drugs for the test were suspended and dispersed with a 0.5% aqueous solution of CMC-Na, and shaken well before use. The rats were administered by i.g. at a volume of 10 mL/kg.
Rats were acclimatized for 3 days after purchase. First, 48 h of sucrose training was performed. After the training, a sucrose baseline test was performed. The rats were randomly and evenly grouped according to sucrose preference. Then, (dl) a 4-week chronic unpredictable stress (CUS) procedure was performed with the following stress methods: (1) food deprivation (fasting); (2) water deprivation; (3) stroboflash; (4) overnight illumination; (5) wet feeding (200 ml of water was added to 150 g of sawdust bedding); (6) noise stimulation (110 dB), 1 h; (7) swimming in cold water (the water temperature was 10° C.); (8) cage tilt (45 degrees of inclination); (9) tail pinch (at 1 cm away from the tail root) for 6 min; (10) restraint for 1-2 h. One of the above stress methods was used randomly every day, but water deprivation and fasting were separated. The corresponding drugs (including the blank control group and the positive drug group) were given 1 h before the stress in the morning every day. Behavior test was performed after the end of the chronic stress. d25, sucrose preference; d28, open-field; d31, novelty-suppressed feeding test.
On the 29th day of the stress program, the rats were fasted for 48 hours (not water deprivation) and then subjected to a novelty-suppressed feeding test (d31). The rats were placed in a novelty-suppressed feeding chamber with an open top. The bottom of the chamber was covered with a 2 cm thick sawdust. In the center of the chamber were placed 12 food balls of the same size. At the same time as the rats were put in, the latency of the rats to start eating within 5 min was calculated. The criterion for eating was that the animal started chewing food instead of just sniffing or toying with food. Rats that had not eaten within 5 minutes were recorded to have a feeding latency of 5 minutes. The test environment of the test should be kept as quiet as possible; the rats should be placed in the same position and direction each time; the environment of the test was preferably different from the breeding environment, and the light intensity of the test environment was greater than that of the breeding environment.

[2] = system: Kunming mice; test: Forced mouse swimming test; type: in vivo; details: 10 mg/kg intraperitoneal, 3 days, last 4 of 6 min
Experimental: (§1) Animals: Kunming mice, male, body weight 18-22 g, SPF grade; SD rats, male, body weight 150-180 g, SPF grade. The test was carried out after acclimatization, and the animal was fasted for 12 hours before the test.
(§2) All drugs for the test were suspended and dispersed in a 1% aqueous solution of hydroxypropyl methylcellulose (HPMC), and shaken well before use. […] The doses for administration were all 10 mg/kg. For the concentration and volume for administration, see J Psychiatry Neurosci 2004; 29(2):126-133. The mice were intraperitoneally administered in a volume of 0.5 mL/20 g; and the rats were administered by i.g. in a volume of 2 mL/100 g.
Animal grouping and administration method were the same as those in the tail suspension test in mice. The mice were placed in a round glass vessel with a height of 20 cm, an inner diameter of 12 cm, a water depth of 10 cm and a water temperature of 25° C.

[3] = system: Kunming mice; test: Acute toxicity test of mouse; type: in vivo
Experimental: Mice were administered by i.g. at doses of 5000 mg/kg and 2000 mg/kg. The drugs were dispersed with a 1% aqueous solution of hydroxypropyl methylcellulose (HPMC), and the administration volume was calculated in accordance with 0.2 mL/10 g.

[4] = system: SD rats; test: Forced rat swimming test; type: in vivo; details: 10 mg/kg i.g., 3 days, last 5 of 6 min
Experimental: as §1, §2
Rats were randomly divided into groups according to weight balance. Rats were administered by i.g. for three consecutive days, once a day. One hour after administration on the third day, the forced swimming test was performed. The rats were placed in a round glass jar with a height of 40 cm, an inner diameter of 18 cm, a water depth of 23 cm, and a water temperature of 25° C. The rats were allowed to swim for 6 minutes, and the accumulated immobility time in the last 5 minutes was recorded.

[5] = In vivo metabolism study, rat oral/tail vein injection model; details: for half-life: read-out: t½ (converted); for bioavailability: oral 5 mg/kg vs intravenous 0.5 mg/kg, dose conversion, read-out: F % (bioavailability)
Experimental: Male SD rats, weighing 200±20 g, SPF grade, were purchased from SPF Biotechnology Co., Ltd.
TSQ Quantum liquid chromatography-mass spectrometer (LC/MS/MS) from Finnigan Inc, USA, chromatography column: TSKgel Amide-80 column (2.0 mm I.D.×100 mm, 5 μm); mobile phase: acetonitrile-water-formic acid (50:50:0.1); flow rate: 0.2 mL/min; injection volume: 5 μL; column temperature: room temperature. Ionization source is electrospray ionization (ESI) with 4.8 KV of spray voltage; capillary temperature (TEM): 300° C.; sheath gas: N2, flow rate: 10 psi; auxiliary gas: N2, flow rate: 1 psi; collision gas (CID): Ar at a pressure of 1.5 mTorr. The mass spectrometry scanning method was selective reaction monitoring (SRM) and detected by positive ion method. The internal standard was a […] solution of aconitine in acetonitrile, the minimum limit of quantification was 5 ng/mL, and the correlation coefficient was >0.99.
Formulation of a solution for intravenous administration: approximately 5 mg of each test drug was accurately weighed, and dissolved in 50 μL of DMSO. To the solution was added an appropriate amount of 40% PEG400 aqueous solution to prepare a 0.5 mg/mL solution. The administration volume was 0.2 mL/200 g body weight, and the dose was 0.5 mg/kg body weight according to concentration conversion.
Formulation of a solution for i.g. administration: approximately 5 mg of each test drug was accurately weighed, and suspended and dispersed with a 1% aqueous solution of HPMC to prepare a 1 mg/mL suspension. The administration volume was 1 mL/200 g body weight, and the dose was 5 mg/kg body weight in terms of concentration according to concentration conversion.
Rats were randomly divided into 4 groups of 5 rats each. Oral gavage and tail vein administration were carried out according to the above dosages. At 2 min, 5 min, 15 min, 30 min, 1 h, 1.5 h, 2 h, and 3 h after administration, blood was collected from an orbit, and centrifuged at 8000 rpm for 10 min. 50 μL of plasma was weighed, and added with 50 μL of internal standard and 150 μL of acetonitrile. The mixture was mixed by shaking, and centrifuged at 18000 rpm for 10 min. The supernatant was taken for LC/MS/MS injection and determination. The determined data were analyzed using a DAS pharmacokinetic program to calculate the main pharmacokinetic parameters.

SMILES | Feeding latency ([1]; 10 mg/kg i.g. daily) | Feeding latency ([1]; 20 mg/kg i.g. daily) | Feeding latency ([1]; 40 mg/kg i.g. daily) | Immobility time [2] | Acute reaction after single administration ([3]; mice, 2000 mg/kg i.g.) | Adverse reactions during 14-day observation ([3]; mice, 2000 mg/kg i.g.) | Body weight compared with the blank group ([3]; mice, 2000 mg/kg i.g.) | Acute reaction after single administration ([3]; mice, 5000 mg/kg i.g.) | Immobility time [4] | AUC(0-t) ([5]; oral 5 mg/kg) | also measured
[2H]C([2H])([2H])Oc1cc2c(CCNC(C)=O)cccc2cc1Cl [Example 1, N-(2-(6-chloro-7-deuteromethoxy-naphthalen-1-yl)ethyl)acetamide] | 145 ± 23 s | 115 ± 16 s | 117 ± 14 s | 73.0 ± 18.2 s | the activity of the mice became slightly smaller but there were no obvious adverse reactions | no obvious adverse reactions within 14 days after the administration | no significant difference in body weight compared with the blank group | the mice began to fall into a coma 15 minutes after the administration, and within 24 hours the mice all awakened and returned to normal | 51.0 ± 32.4 s | 248.83 ng·h/mL | Feeding latency ([1]; 5 mg/kg i.g. daily): 188 ± 21 s; Adverse reactions during 14-day observation ([3]; mice, 5000 mg/kg i.g.): no obvious adverse reactions within 14 days after the administration; Body weight compared with the blank group ([3]; mice, 5000 mg/kg i.g.): no significant difference in body weight compared with the blank group; Safety compared with control drug ([3]; mouse model, overall): safer than the control drug Agomelatine; half-life ([5]; male, SD, plasma, intravenous injection 0.5 mg/kg): 28.8 min; AUC(0-t) ([5]; male, SD, plasma, iv, 0.5 mg/kg, intravenous injection 0.5 mg/kg, read-out: AUC(0-t)): 48.9 ng·h/mL; bioavailability ([5]; male, SD, plasma): 50.9%; half-life ([5]; male, SD, plasma, oral 5 mg/kg): 29.4 min; AUC(0-t) ([5]; male, SD, plasma, po, 5 mg/kg, oral 5 mg/kg, read-out: AUC(0-t)): 249 ng·h/mL
COc1ccc2cccc(CCNC(C)=O)c2c1 [Agomelatine, reference compound] | 248 ± 21 ^ s | 164 ± 26 s | 130 ± 17 s | 113.5 ± 26.6 s | the mice all fell into a coma 15 minutes after the administration | no obvious adverse reactions within 14 days after the administration | the body weight was lighter on the first and second days after the administration with a significant difference | the mice all fell into a coma 15 minutes after the administration and died successively after 12 hours | 73.5 ± 38.5 s | 51.57 ng·h/mL | Number of mice that died within 12 hours ([3]; mice, 2000 mg/kg i.g., group of 10): 4 mice; half-life ([5]; male, Sprague-Dawley (SD), plasma, intravenous injection 0.5 mg/kg): 20.4 min; AUC(0-t) ([5]; male, Sprague-Dawley (SD), plasma, iv, 0.5 mg/kg, intravenous injection 0.5 mg/kg, read-out: AUC(0-t)): 102 ng·h/mL; bioavailability ([5]; male, Sprague-Dawley (SD), plasma): 5.05%; half-life ([5]; male, Sprague-Dawley (SD), plasma, oral 5 mg/kg): 40.2 min; AUC(0-t) ([5]; male, Sprague-Dawley (SD), plasma, po, 5 mg/kg, oral 5 mg/kg, read-out: AUC(0-t)): 51.6 ng·h/mL
